This is an account of results in patent US20140187548A1, “6 SUBSTITUTED IMIDAZOPYRAZINES FOR USE AS MPS-1 AND TKK INHIBITORS IN THE TREATMENT OF HYPERPROLIFERATIVE DISORDERS” (BAYER INTELLECTUAL PROPERTY GMBH, priority 2010, published 2014).

Molecules are shown by their SMILES.

A word on the IC50: it is the point on the concentration scale where inhibition reaches its midpoint.

This assay addresses T1, human kinase Mps-1 (Homo sapiens, UniProt P33981).
T1 construct: N-terminally GST-tagged human full length recombinant Mps-1 kinase; GST (N); purchased Invitrogen, Karslruhe, Germany PV4071
T1 sequence (P33981 1-857): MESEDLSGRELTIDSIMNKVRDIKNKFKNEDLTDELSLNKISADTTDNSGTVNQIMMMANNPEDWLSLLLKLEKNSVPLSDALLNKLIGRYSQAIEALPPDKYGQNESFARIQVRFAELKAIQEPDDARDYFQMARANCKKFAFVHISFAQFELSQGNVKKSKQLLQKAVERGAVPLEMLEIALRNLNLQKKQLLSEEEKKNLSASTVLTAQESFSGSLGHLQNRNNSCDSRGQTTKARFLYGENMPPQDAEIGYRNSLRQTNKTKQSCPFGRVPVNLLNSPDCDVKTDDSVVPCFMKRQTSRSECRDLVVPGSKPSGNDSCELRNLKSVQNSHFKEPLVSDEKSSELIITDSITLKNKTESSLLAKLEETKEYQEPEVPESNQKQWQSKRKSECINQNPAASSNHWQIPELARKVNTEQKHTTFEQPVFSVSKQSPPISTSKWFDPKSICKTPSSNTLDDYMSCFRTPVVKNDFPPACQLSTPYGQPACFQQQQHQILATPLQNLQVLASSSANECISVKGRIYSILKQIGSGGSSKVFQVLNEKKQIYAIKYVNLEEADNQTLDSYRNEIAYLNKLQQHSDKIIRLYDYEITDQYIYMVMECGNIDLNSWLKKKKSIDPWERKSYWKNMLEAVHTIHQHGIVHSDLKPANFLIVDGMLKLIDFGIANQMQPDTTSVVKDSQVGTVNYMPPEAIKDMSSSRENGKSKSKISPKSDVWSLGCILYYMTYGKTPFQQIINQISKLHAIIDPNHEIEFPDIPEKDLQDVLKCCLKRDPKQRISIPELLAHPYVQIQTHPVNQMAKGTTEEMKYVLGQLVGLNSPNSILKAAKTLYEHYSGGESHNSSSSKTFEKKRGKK
In words: Mps-1 kinase assay (TR-FRET). In kind it is biochemical. Conditions: N-terminally GST-tagged human full length recombinant Mps-1; 10 μM ATP; 1 μM peptide substrate; 15 min pre-incubation; 60 min at 22° C. The gist of the method: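 N-terminally GST-tagged full-length recombinant human Mps-1, about 1 nM final, phosphorylates a biotinylated peptide. Product detected by TR-FRET from Eu-anti-phospho-Ser/Thr antibody to streptavidin-XLent after 1 h at 22° C.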
On the technique in general: TR-FRET usually uses a lanthanide donor and a delayed reading to cut background.
With `CC(C)CNc1nc(-c2cc(F)cc(F)c2)cn2c(-c3ccc(C(=O)NC4CC4)cc3)cnc12` [Example 1-60, N-cyclopropyl-4-{6-(3,5-difluorophenyl)-8-[(2-methylpropyl)amino]imidazo[1,2-a]pyrazin-3-yl}benzamide], the IC50 came to 42.4 nM.
The same measure for `CC(C)CNc1nc(-c2ccc([N+](=O)[O-])cc2)cn2c(-c3ccc(C(=O)NC4CC4)cc3)cnc12` [Example 1-61, N-cyclopropyl-4-{8-[(2-methylpropyl)amino]-6-(4-nitrophenyl)imidazo [1,2-a]pyrazin-3-yl} benzamide]: 2 nM.
The same measure for `COc1ccc(-c2cn3c(-c4ccc(C(=O)NC5CC5)cc4)cnc3c(NCC(C)C)n2)cc1F` [Example 1-62, N-cyclopropyl-4-{6-(3-fluoro-4-methoxyphenyl)-8-[(2-methylpropyl)amino]imidazo[1,2-a]pyrazin-3-yl}benzamide]: 6.7 nM; for `CC(C)CNc1nc(-c2ccc(F)c(F)c2)cn2c(-c3ccc(C(=O)NC4CC4)cc3)cnc12` [Example 1-63, N-cyclopropyl-4-{6-(3,4-difluorophenyl)-8-[(2-methylpropyl)amino]imidazo[1,2-a]pyrazin-3-yl}benzamide]: 7.7 nM.
The same measure for `CC(C)CNc1nc(-c2ccccc2Oc2ccccc2)cn2c(-c3ccc(C(=O)NC4CC4)cc3)cnc12` [Example 1-64, N-cyclopropyl-4-{8-[(2-methylpropyl)amino]-6-(2-phenoxyphenyl)imidazo[1,2-a]pyrazin-3-yl}benzamide]: 74.3 nM.
On to `CC(C)CNc1nc(-c2ccccc2O)cn2c(-c3ccc(C(=O)NC4CC4)cc3)cnc12` [Example 1-65, N-cyclopropyl-4-{6-(2-hydroxyphenyl)-8-[(2-methylpropyl)amino]imidazo[1,2-a]pyrazin-3-yl}benzamide], for which the IC50 turned out to be 8.5 nM.
The same measure for `CC(C)CNc1nc(-c2cccc(O)c2)cn2c(-c3ccc(C(=O)NC4CC4)cc3)cnc12` [Example 1-66, N-cyclopropyl-4-{6-(3-hydroxyphenyl)-8-[(2-methylpropyl)amino]imidazo[1,2-a]pyrazin-3-yl}benzamide]: 2.2 nM; for `CC(C)CNc1nc(-c2ccc(O)cc2)cn2c(-c3ccc(C(=O)NC4CC4)cc3)cnc12` [Example 1-67, N-cyclopropyl-4-{6-(4-hydroxyphenyl)-8-[(2-methylpropyl)amino]imidazo[1,2-a]pyrazin-3-yl}benzamide]: 3.5 nM.
The same measure for `COc1c(C)cc(-c2cn3c(-c4ccc(C(=O)NC5CC5)cc4)cnc3c(NCC(C)C)n2)cc1C` [Example 1-68, N-cyclopropyl-4-{6-(4-methoxy-3,5-dimethylphenyl)-8-[(2-methyl-propyl)amino]imidazo [1,2-a]pyrazin-3-yl} benzamide]: 19.7 nM; for `CC(C)CNc1nc(-c2cccc(-c3ccccc3)c2)cn2c(-c3ccc(C(=O)NC4CC4)cc3)cnc12` [Example 1-69, 4-{6-(biphenyl-3-yl)-8-[(2-methylpropyl)amino]imidazo[1,2-a]pyrazin-3-yl}-N-cyclopropyl-benzamide]: 19.9 nM; for `CSc1ccccc1-c1cn2c(-c3ccc(C(=O)NC4CC4)cc3)cnc2c(NCC(C)C)n1` [Example 1-70, N-cyclopropyl-4-{8-[(2-methylpropyl)amino]-6-[2-(methylsulfanyl)phenyl]imidazo[1,2-a]pyrazin-3-yl}benzamide]: 3.2 nM.
With `COc1ccc(Cl)cc1-c1cn2c(-c3ccc(C(=O)NC4CC4)cc3)cnc2c(NCC(C)C)n1` [Example 1-71, 4-{6-(5-chloro-2-methoxy-phenyl)-8-[(2-methyl-propyl)amino]imidazo [1,2-a]pyrazin-3-yl}-N-cyclopropylbenzamide], the IC50 is 35.9 nM.
The same measure for `CC(C)CNc1nc(-c2cccc(C#N)c2)cn2c(-c3ccc(C(=O)NC4CC4)cc3)cnc12` [Example 1-72, 4-{6-(3-cyanophenyl)-8-[(2-methylpropyl)amino]imidazo[1,2-a]pyrazin-3-yl}-N-cyclo-propylbenzamide]: 4.6 nM.
The same measure for `CC(C)CNc1nc(-c2ccc(C#N)cc2)cn2c(-c3ccc(C(=O)NC4CC4)cc3)cnc12` [Example 1-73, 4-{6-(4-cyanophenyl)-8-[(2-methylpropyl)amino]imidazo[1,2-a]pyrazin-3-yl}-N-cyclo-propylbenzamide]: 2.1 nM; for `CC(C)CNc1nc(-c2ccc3[nH]ccc3c2)cn2c(-c3ccc(C(=O)NC4CC4)cc3)cnc12` [Example 1-74, N-cyclopropyl-4-{6-(1H-indol-5-yl)-8-[(2-methyl-propyl)amino]imidazo [1,2-a]pyrazin-3-yl} benzamide]: 37.7 nM; for `CC(C)CNc1nc(-c2ccc(S(C)(=O)=O)cc2)cn2c(-c3ccc(C(=O)NC4CC4)cc3)cnc12` [Example 1-75, N-cyclopropyl-4-{8-[(2-methylpropyl)amino]-6-[4-(methylsulfonyl)phenyl]imidazo[1,2-a]pyrazin-3-yl}benzamide]: 2.5 nM.
The same measure for `CC(C)CNc1nc(-c2ccc3ncccc3c2)cn2c(-c3ccc(C(=O)NC4CC4)cc3)cnc12` [Example 1-76, N-cyclopropyl-4-{8-[(2-methylpropyl)amino]-6-(quinolin-6-yl)imidazo [1,2-a]pyrazin-3-yl} benzamide]: 3.3 nM; for `CC(C)CNc1nc(-c2ccccc2CO)cn2c(-c3ccc(C(=O)NC4CC4)cc3)cnc12` [Example 1-77, N-cyclopropyl-4-{6-[2-(hydroxymethyl)phenyl]-8-[(2-methylpropyl)amino]imidazo[1,2-a]pyrazin-3-yl}benzamide]: 1.2 nM; for `COc1ccc2cc(-c3cn4c(-c5ccc(C(=O)NC6CC6)cc5)cnc4c(NCC(C)C)n3)ccc2c1` [Example 1-79, N-cyclopropyl-4-{6-(6-methoxynaphthalen-2-yl)-8-[(2-methylpropyl)amino]imidazo[1,2-a]pyrazin-3-yl}benzamide]: 32.7 nM.
On to `Cc1ccc(-c2cn3c(-c4ccc(C(=O)NC5CC5)cc4)cnc3c(NCC(C)C)n2)cc1Cl` [Example 1-80, 4-{6-(3-chloro-4-methyl-phenyl)-8-[(2-methylpropyl)amino]imidazo [1,2-a]pyrazin-3-yl}-N-cyclopropylbenzamide], for which the half-maximal inhibitory concentration (IC50) came to 20.7 nM.
The same measure for `CC(C)CNc1nc(-c2ccc(OCC(C)C)cc2)cn2c(-c3ccc(C(=O)NC4CC4)cc3)cnc12` [Example 1-81, N-cyclopropyl-4-{6-[4-(2-methylpropoxy)phenyl]-8-[(2-methylpropyl)amino]imidazo[1,2-a]pyrazin-3-yl}benzamide]: 347 nM.
Regarding `CNC(=O)c1ccc(-c2cn3c(-c4ccc(C(=O)NC5CC5)cc4)cnc3c(NCC(C)C)n2)cc1Cl` [Example 1-82, 2-chloro-4-{3-[4-(cyclopropylcarbamoyl)phenyl]-8-[(2-methylpropyl)amino]imidazo[1,2-a]pyrazin-6-yl}-N-methyl benzamide], the IC50 was determined as 1.6 nM.
With `CC(C)CNc1nc(-c2ccc(C(=O)NC3CC3)c(Cl)c2)cn2c(-c3ccc(C(=O)NC4CC4)cc3)cnc12` [Example 1-83, 2-chloro-N-cyclopropyl-4-{3-[4-(cyclopropyl-carbamoyl)phenyl]-8-[(2-methylpropyl)amino]imidazo[1,2-a]pyrazin-6-yl}benzamide], the IC50 is 6.9 nM.
The same measure for `CC(C)CNc1nc(-c2ccc(Cl)c(C(=O)NC3CC3)c2)cn2c(-c3ccc(C(=O)NC4CC4)cc3)cnc12` [Example 1-84, 2-chloro-N-cyclopropyl-5-{3-[4-(cyclopropyl-carbamoyl)phenyl]-8-[(2-methylpropyl)amino]imidazo[1,2-a]pyrazin-6-yl}benzamide]: 4.5 nM; for `CC(C)CNc1nc(-c2ccc(F)c(C(=O)NC(C)C)c2)cn2c(-c3ccc(C(=O)NC4CC4)cc3)cnc12` [Example 1-85, 5-{3-[4-(cyclopropyl-carbamoyl)phenyl]-8-[(2-methylpropyl)amino]imidazo[1,2-a]pyrazin-6-yl}-2-fluoro-N-(propan-2-yl)benzamide]: 2.6 nM.
The same measure for `CC(C)CNc1nc(-c2ccc(C(=O)NC(C)C)c(F)c2)cn2c(-c3ccc(C(=O)NC4CC4)cc3)cnc12` [Example 1-86, 4-{3-[4-(cyclopropyl-carbamoyl)phenyl]-8-[(2-methylpropyl)amino]imidazo[1,2-a]pyrazin-6-yl}-2-fluoro-N-(propan-2-yl)benzamide]: 6.2 nM; for `CC(C)CNc1nc(-c2ccc(Cl)cc2Cl)cn2c(-c3ccc(C(=O)NC4CC4)cc3)cnc12` [Example 1-87, N-cyclopropyl-4-{6-(2,4-dichlorophenyl)-8-[(2-methylpropyl)amino]imidazo[1,2-a]pyrazin-3-yl}benzamide]: 6.7 nM.
